The values below come from ChEMBL document CHEMBL3991601, “The target landscape of clinical kinase drugs” (Science, 2017).

The target of experiment [1] is T1, Peroxisomal acyl-coenzyme A oxidase 1 (Homo sapiens, UniProt Q15067).
T1 sequence (Q15067 whole entry): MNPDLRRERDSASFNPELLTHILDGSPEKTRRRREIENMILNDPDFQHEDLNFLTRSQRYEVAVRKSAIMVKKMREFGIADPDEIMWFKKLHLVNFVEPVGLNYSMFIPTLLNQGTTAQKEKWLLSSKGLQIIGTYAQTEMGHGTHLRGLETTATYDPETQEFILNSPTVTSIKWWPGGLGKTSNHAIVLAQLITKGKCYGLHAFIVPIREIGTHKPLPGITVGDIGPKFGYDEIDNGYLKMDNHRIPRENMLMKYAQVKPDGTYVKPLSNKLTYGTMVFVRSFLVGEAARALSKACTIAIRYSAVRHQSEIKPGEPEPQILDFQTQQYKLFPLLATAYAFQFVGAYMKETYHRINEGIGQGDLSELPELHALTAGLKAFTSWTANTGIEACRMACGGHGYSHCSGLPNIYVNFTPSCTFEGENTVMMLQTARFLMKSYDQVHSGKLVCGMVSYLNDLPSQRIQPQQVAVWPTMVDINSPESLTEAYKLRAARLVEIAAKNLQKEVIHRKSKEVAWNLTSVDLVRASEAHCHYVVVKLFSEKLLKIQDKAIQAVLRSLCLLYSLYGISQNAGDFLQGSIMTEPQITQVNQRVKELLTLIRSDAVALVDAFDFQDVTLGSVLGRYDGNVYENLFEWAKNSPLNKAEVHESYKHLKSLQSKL

In experiment [2] the target is T2, Interleukin-1 receptor-associated kinase 4 (Homo sapiens, UniProt Q9NWZ3).
T2 sequence (Q9NWZ3 whole entry): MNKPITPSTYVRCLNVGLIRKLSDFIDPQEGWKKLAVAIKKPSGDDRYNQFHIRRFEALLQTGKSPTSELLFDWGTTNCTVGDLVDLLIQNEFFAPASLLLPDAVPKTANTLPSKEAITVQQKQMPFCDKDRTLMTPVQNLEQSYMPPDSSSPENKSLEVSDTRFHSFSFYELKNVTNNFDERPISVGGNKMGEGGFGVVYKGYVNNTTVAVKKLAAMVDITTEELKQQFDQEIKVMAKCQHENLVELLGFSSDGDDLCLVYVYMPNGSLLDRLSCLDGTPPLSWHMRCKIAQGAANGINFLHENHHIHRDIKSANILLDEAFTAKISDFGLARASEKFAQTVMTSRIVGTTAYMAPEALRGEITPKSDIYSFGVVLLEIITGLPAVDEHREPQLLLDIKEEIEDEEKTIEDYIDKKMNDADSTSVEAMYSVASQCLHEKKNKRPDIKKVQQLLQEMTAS

The target of experiment [3] is T3, Phosphatidylinositol 5-phosphate 4-kinase type-2 gamma (Homo sapiens, UniProt Q8TBX8).
T3 sequence (Q8TBX8 whole entry): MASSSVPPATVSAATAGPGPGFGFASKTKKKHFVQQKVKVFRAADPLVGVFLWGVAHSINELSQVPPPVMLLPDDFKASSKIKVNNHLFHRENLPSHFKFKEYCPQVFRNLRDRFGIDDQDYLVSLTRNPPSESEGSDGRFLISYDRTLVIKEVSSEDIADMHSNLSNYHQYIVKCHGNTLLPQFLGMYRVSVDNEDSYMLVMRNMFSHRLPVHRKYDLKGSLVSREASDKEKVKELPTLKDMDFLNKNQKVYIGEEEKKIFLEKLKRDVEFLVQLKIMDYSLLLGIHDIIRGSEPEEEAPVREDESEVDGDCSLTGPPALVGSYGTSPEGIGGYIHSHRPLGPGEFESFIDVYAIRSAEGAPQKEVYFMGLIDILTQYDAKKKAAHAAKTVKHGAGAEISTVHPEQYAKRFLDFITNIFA

Experiment [4] has as its target Ribosomal protein S6 kinase beta-1 (Homo sapiens, UniProt P23443).
For experiment [5], the target named is T4, Serine/threonine-protein kinase TAO1 (Homo sapiens, UniProt Q7L7X3).
T4 sequence (Q7L7X3 whole entry): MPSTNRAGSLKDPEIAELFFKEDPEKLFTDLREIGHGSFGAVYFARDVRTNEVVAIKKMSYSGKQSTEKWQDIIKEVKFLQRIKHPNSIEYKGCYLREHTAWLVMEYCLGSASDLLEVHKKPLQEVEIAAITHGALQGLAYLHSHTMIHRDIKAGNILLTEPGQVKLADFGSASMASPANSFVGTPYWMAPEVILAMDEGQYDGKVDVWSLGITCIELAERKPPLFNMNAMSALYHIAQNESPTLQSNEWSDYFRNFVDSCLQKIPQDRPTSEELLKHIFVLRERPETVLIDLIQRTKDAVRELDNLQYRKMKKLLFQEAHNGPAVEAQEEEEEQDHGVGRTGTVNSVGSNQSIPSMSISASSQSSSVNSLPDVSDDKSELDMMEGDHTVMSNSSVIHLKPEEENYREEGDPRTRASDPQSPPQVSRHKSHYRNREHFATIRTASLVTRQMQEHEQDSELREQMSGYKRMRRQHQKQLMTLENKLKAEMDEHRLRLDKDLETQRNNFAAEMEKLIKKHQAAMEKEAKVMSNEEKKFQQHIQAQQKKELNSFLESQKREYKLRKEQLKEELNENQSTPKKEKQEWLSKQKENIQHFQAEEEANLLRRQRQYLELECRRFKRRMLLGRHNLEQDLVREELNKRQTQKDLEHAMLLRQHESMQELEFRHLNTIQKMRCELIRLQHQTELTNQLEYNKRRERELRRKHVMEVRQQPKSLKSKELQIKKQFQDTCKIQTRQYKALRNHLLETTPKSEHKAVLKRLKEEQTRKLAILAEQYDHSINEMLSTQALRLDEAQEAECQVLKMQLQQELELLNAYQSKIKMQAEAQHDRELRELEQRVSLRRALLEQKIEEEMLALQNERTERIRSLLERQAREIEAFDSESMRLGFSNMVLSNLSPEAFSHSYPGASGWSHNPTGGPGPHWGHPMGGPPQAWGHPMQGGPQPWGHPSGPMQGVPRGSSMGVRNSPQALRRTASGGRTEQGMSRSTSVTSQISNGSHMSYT

Activity calls are given as the source filed them. For most assays here, no stated cut-off is given here; in the data, actives have a measured Kd and inactives only a lower limit. Where only a bound is given, the exact number is not on record here.

Ribosomal protein S6 kinase beta-1, sequence (P23443 whole entry): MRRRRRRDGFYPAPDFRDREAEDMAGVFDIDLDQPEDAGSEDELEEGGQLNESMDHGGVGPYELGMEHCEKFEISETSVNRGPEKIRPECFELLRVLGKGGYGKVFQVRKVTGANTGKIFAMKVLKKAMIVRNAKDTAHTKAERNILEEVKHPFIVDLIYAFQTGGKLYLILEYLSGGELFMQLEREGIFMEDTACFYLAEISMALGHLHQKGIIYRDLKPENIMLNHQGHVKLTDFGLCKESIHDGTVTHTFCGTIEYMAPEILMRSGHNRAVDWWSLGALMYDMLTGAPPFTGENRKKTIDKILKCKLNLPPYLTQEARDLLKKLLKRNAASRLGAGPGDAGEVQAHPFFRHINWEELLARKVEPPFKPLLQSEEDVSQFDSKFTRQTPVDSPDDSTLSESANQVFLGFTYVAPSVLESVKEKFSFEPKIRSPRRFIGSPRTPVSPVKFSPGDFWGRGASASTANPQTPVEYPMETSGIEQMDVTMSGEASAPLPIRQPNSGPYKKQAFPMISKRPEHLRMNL

As usually defined, the Kd is the concentration at which binding is half-saturated. On to `C=CC(=O)Nc1cccc(Nc2nc(Nc3ccc(N4CCN(C(C)=O)CC4)cc3OC)ncc2C(F)(F)F)c1` [ROCILETINIB], for which the Kd in experiment [1], in experiment [2], in experiment [3], in experiment [4] and in experiment [5] was > 30 µM (inactive) throughout.
Regarding `CCc1cc2c(cc1N1CCC(N3CCOCC3)CC1)C(C)(C)c1[nH]c3cc(C#N)ccc3c1C2=O` [ALECTINIB], the Kd in experiment [1] is 0.271 µM; in experiment [2] it was > 30 µM (inactive); in experiment [3], > 30 µM (inactive); in experiment [4], > 30 µM (inactive); in experiment [5], > 30 µM (inactive).
On to `COc1cc2ncnc(Nc3ccc(F)c(Cl)c3)c2cc1NC(=O)/C=C/CN1CCCCC1` [DACOMITINIB ANHYDROUS], for which the Kd in experiment [1], in experiment [2], in experiment [3], in experiment [4] and in experiment [5] was > 30 µM (inactive) in each case.
Consider `Cc1c(NC(=O)OC[C@@H]2COCCN2)cn2ncnc(Nc3ccc4c(cnn4Cc4cccc(F)c4)c3)c12` [AC-480], for which the Kd in experiment [1], in experiment [2], in experiment [3], in experiment [4] and in experiment [5] was > 30 µM (inactive) in each case.
`Cc1cc(-c2cc(OC(=O)c3ccccc3)ccc2Cl)cc2nnc(Nc3ccc(OCCN4CCCC4)cc3)nc12` [TG100-801]: the Kd in experiment [1], in experiment [2], in experiment [3], in experiment [4] and in experiment [5] was > 30 µM (inactive) throughout.
For the molecule `COc1cc2nccc(Oc3ccc(NC(=O)C4(C(=O)Nc5ccc(F)cc5)CC4)cc3)c2cc1OC` [CABOZANTINIB], the Kd in experiment [1] is > 30 µM (inactive); in experiment [2], > 30 µM (inactive); in experiment [3] it was 2.9 µM (active); in experiment [4], > 30 µM (inactive); in experiment [5], > 30 µM (inactive).
As to `Cc1c(Cn2c(C)nc3c(C(=O)O)cc(N4CCOCC4)cc32)cccc1C(F)(F)F` [GSK-2636771], the Kd in experiment [1], in experiment [2], in experiment [3], in experiment [4] and in experiment [5] was > 30 µM (inactive) in each case.
Consider `Cc1cc(Nc2nc(N[C@@H](C)c3ncc(F)cn3)ncc2Cl)n[nH]1` [AZD-1480], for which the Kd in experiment [1], in experiment [2], in experiment [3], in experiment [4] and in experiment [5] was > 30 µM (inactive) in each case.
Turning to `Cc1ccc(C(=O)Nc2ccc(Oc3cc4cnn(C)c4cc3-c3cn[nH]c3)c(F)c2)c(=O)n1-c1ccc(F)cc1` [MERESTINIB], the Kd in experiment [1], in experiment [2], in experiment [3], in experiment [4] and in experiment [5] was > 30 µM (inactive) in each case.
With `CNC(=O)c1cc(COc2nnc(Nc3ccc(Cl)cc3)c3ccoc23)ccn1` [TELATINIB], the Kd in experiment [1], in experiment [2], in experiment [3], in experiment [4] and in experiment [5] was > 30 µM (inactive) in each case.
On to `CNC(=O)c1cccc(-c2ccc3c(N4CCOC[C@@H]4C)nc(N4CCOC[C@@H]4C)nc3n2)c1` [VISTUSERTIB], for which the Kd in experiment [1], in experiment [2], in experiment [3], in experiment [4] and in experiment [5] was > 30 µM (inactive) in each case.
For `O=C(NC[C@H](O)CO)c1ccncc1Nc1ccc(I)cc1F` [PIMASERTIB], the Kd in experiment [1], in experiment [2], in experiment [3], in experiment [4] and in experiment [5] was > 30 µM (inactive) in each case.
Take `CC(C)CC(=O)Nc1[nH]nc2c1CN(C(=O)C1CCN(C)CC1)C2(C)C` [PHA-793887]: the Kd in experiment [1], in experiment [2], in experiment [3], in experiment [4] and in experiment [5] was > 30 µM (inactive) each time.
Turning to `O=C(NOC[C@H](O)CO)c1ccc(F)c(F)c1Nc1ccc(I)cc1F` [MIRDAMETINIB], the Kd in experiment [1], in experiment [2], in experiment [3], in experiment [4] and in experiment [5] was > 30 µM (inactive) in each case.
For the molecule `COc1ccc2c(OCc3nnc4ccc(-c5ccccc5)nn34)ccnc2c1` [AMG-208], the Kd in experiment [1], in experiment [2], in experiment [3], in experiment [4] and in experiment [5] was > 30 µM (inactive) throughout.
With `COc1ccc(-c2ccc3ncc4c(c3c2)n(-c2ccc(N3CCNCC3)c(C(F)(F)F)c2)c(=O)n4C)cn1` [BGT-226 FREE BASE], the Kd in experiment [1] is > 30 µM (inactive); in experiment [2], > 30 µM (inactive); in experiment [3], 4.79 µM (active); in experiment [4], > 30 µM (inactive); in experiment [5], > 30 µM (inactive).
